Measurements as given in US9932339B2, “Helquats with heteroaromatic substituents, preparation thereof, and use thereof as G-quadruplex stabilizers” (USTAV ORGANICKE CHEMIE A BIOCHEMIE AV CR, V.V.I., priority 2014, dated 2018).

Tested on: c-Myc27 oligonucleotide G-quadruplex
Experiment: ECD melting curve of c-Myc27 oligonucleotide G-quadruplex with ligands
Format: binding
Conditions: ECD at 263 nm; molar ratio oligonucleotide:ligand 1:1 (5 μmol l^−1 each); Li+-cacodylate buffer
Experimental: ECD spectra were measured on J-815 spectrometer (Jasco, Japan). Measurement settings (Tab. 3), spectra saving and background subtraction was performed in a Spectra Manager software (Jasco, Japan).
For measurement of the temperature dependencies the cuvettes in the cuvette compartment were placed in the Peltier module, the temperature was controlled by the Spectra Manager software. Melting curves were measured at a wavelength which corresponds to the maximum difference in signal intensity of ECD spectra of oligonucleotide at 25 and 95° C., as shown in FIG. 1. Before and after measuring the melting curves, ECD spectra in extreme temperatures were measured, in order to verify the stability of the studied system.
Processing of the spectra was performed using Spectra Manager (Jasco, Japan). The resulting spectra were obtained from the measured sample spectrum after subtraction of background spectrum, which was spectrum of the solvent. Measuring of sample spectrum and background was conducted under identical conditions. ECD spectra are reported as ellipticity, labeled in the CD figures [mdeg], whose numerical value is associated with dimensionless circular dichroism ΔA (CDv=32980 ΔAv). This CD notations preserves conventions of the international journals in which articles from the field are published.
Stock solution of […] was prepared from c-Myc27 oligonucleotide by dissolution in H2O. The cuvette of 1 mm thickness was filled with 7 μl of oligonucleotide solution and 133 μl of Li^+-cacodylate buffer. Oligonucleotide solution in the cuvette was overlayed with mineral oil to measure temperature dependencies without concentration changes due to evaporation of the solvent at higher temperatures.
From stock solutions of the racemic ligands in DMSO at a concentration of […] solutions were prepared at a concentration of 140 μmol l^−1 by dissolving in H2O. Ligands were added to the solution of oligonucleotide under buffer/mineral oil interface using Hamilton microsyringe (5 μl of solution at a concentration of […]). The resulting molar ratio of oligonucleotide:ligand was 1:1.
The cuvette filled with c-Myc27 oligonucleotide solution in Li^+-cacodylate buffer (cc-Myc27=5 μmol l^−1) was first heated for 5 minutes at 95° C., at this temperature ECD spectrum was measured. Then the sample was cooled to 25° C., allowed to stabilize for 10 min and then ECD spectrum was measured again. Then, the melting curve of ECD oligonucleotide at 263 nm was measured in the temperature range 25-95° C. and for verification of the stability of the sample spectra the spectra were measured again at 95 and 25° C. Under the oil layer ligand solution (cligand=5 μmol l^−1) was added to a solution of oligonucleotide, the sample was thoroughly mixed and ECD spectrum measured at 25° C., the melting curve was obtained and again control spectra were measured at 95 and 25° C.
Decomposition of the G-quadruplex structure in the presence of ligands under influence of temperature was monitored at the wavelength corresponding to the maximum difference in signal intensities of ECD oligonucleotide/ligand at 25 and 95° C., i.e. at 263 nm. Thermal stability of G-quadruplex was monitored in the range of 25 to 95° C. and in a molar ratio of oligonucleotide:ligand=1:1. Example of influence of the studied ligand on the stability of G-quadruplex formed from c-Myc27 oligonucleotide is shown in FIG. 2.
The degree of G-quadruplex stabilization was expressed as change of melting temperature caused by the presence of G-quadruplex ligands (ΔTm): ΔTm=Tm,oligonucleotide+ligand−Tm,oligonucleotide (1), • where Tm,oligonucleotide+ligand is melting temperature of molecular system comprising the oligonucleotide and the ligand and Tm,oligonucleotide, the melting temperature of the oligonucleotide itself. Tab. 4 summarizes the changes in melting temperatures of c-Myc27 oligonucleotide G-quadruplex in the presence of studied ligands.

Cc1c(C)c2c(c3c1CC[n+]1ccc(/C=C/c4cccc5c4oc4ccccc45)cc1-3)-c1c3ccccc3cc[n+]1CC2 (racemic) [MJA-C13-8, (rac)-(E)-13-(2-(dibenzo[b,d]furan-4-yl)vinyl)-6,7-dimethyl-4,5,8,9-tetrahydroisoquinolino[1,2-a]pyrido[1,2-k][2,9]phenanthroline-3,10-diium trifluoromethanesulfonate] was tested, and the “ΔTm (° C.)” value was 6.8 °C.
